From patent US20100173936A1 (priority 2008, published 2010)

Columns and labels:
Format in all cases: in vivo, human
glycosylated hemoglobin = experiment: Glycosylated hemoglobin in the diabetic hypertensive crossover study
adiponectin = experiment: Serum adiponectin enzyme immunoassay (EIA)
Protocol: (§1) An aliquot of each sample was then drawn, and an enzyme immunoassay (EIA; Cayman Chemical, Ann Arbor, Mich.) for serum adiponectin and leptin was performed on each sample in triplicate according to well-established protocols (45). A total of 50 μl of serum were used for the analysis. The levels of total serum adiponectin and leptin were determined on a plate reader at an optical density of 420 nm. No interference by quinapril or its metabolites was found in any of the assays.

leptin = experiment: Serum leptin enzyme immunoassay (EIA)
Protocol: as §1

[1] = Blood pressure in randomized crossover study, Type II diabetes mellitus with hypertension
Protocol: (§2) Subjects with hypertension requiring therapy were excluded from the study as one of the goals of the study was to measure the anti-inflammatory effects of an ACE inhibitor independently of its blood pressure lowering effects. Subjects on lipid lowering therapy (e.g., statin therapy) at the time of enrollment continued their therapy without change throughout the study. Written informed consent was obtained from all subjects. All subjects were evaluated at the time of enrollment. The subjects received nutritional counseling and were advised to record their weight and calorie counts weekly. A nutritionist was available for counseling throughout the study. Blood samples were drawn before and at the end of therapy at a similar time of day while subjects were fasting. […] After the initial 8 weeks of treatment, there was a 4 week washout period. The subjects then received in a crossover fashion the alternate pharmacological regimen. Allocation concealment was maintained until the end of the study. Pill counts were obtained at the end of the treatment period to determine compliance (13). Subjects were advised to self-administer half of the full dose during the initial 2 days of therapy, after which they were to take the full study dose at the same time each morning. The total study period was 22 weeks. […] Blood pressure was checked with at least three separate measurements that were taken approximately five minutes apart using an Omron sphygmomanometer.

urinary albumin = experiment: Proteinuria, 24 hour urine collection, standard chemical protein analysis; conditions: versus pretreatment, in words (FIG. 1)
Protocol: Upon collection of each urine sample, the urine was quickly analyzed, and protein analysis was performed via a standard chemical analysis (Quest Laboratory, Scranton, Pa.).

[2] = HOMA-IR index of insulin resistance
From the text: Without wishing to be bound by any particular theory, it was thought that insulin resistance can play an important role in hyperglycemia in type 2 diabetic subjects, and can eventually induce the development of diabetic microangiopathy (20). Indeed, to achieve glycemic control and prevent these complications, several oral hypoglycemic agents that improve insulin resistance, such as thiazolidinediones and biguanides, have been developed and are currently available clinically (21,22). Furthermore, insulin resistance is proposed to play important roles in the pathogenesis of cardiovascular diseases (23,24), the most common cause of death in diabetic subjects. Therefore, a clinical and epidemiological evaluation was undertaken with the subjects described in Example 1 in order to evaluate insulin resistance simply and accurately in the individual diabetic subjects with hypertension. Many investigators have studied simple surrogate indices of insulin resistance in comparison with the index assessed by euglycemic-hyperinsulinemic clamp (clamp-IR); for example, fasting plasma insulin (25), homeostasis model assessment (HOMA) of insulin resistance (HOMA-IR) (26), and the fasting glucose-to-insulin ratio (27). […]

LDL = LDL oxidation lag time, CuSO4 assay on LDL isolated from treated subjects
From the text: Although, the mechanisms of this damage have yet to be clearly established and may involve the inactivation of nitric oxide (NO) by oxygen-derived free radicals such as superoxide (33), it is clear that this inflammatory response affects the gene expression of regulatory molecules, such as vascular cell adhesion molecule and tumor necrosis factor-alpha (34-36), which in turn promote foam cell formation. In this regard, a reduction in NO levels along with an increase in ox-LDL may function as immunomodulators of the atherosclerotic process (37) and, indeed, recent studies imply that ox-LDL stimulates an immunological response through the formation of autoantibodies, resulting in further damage to the endothelium and acceleration of the atherosclerotic process (38,39). This antibody response may represent a marker for the extent of atherosclerosis seen in individuals. […] The LDL was then oxidized to ox-LDL by an in vitro assay utilizing CuSO4 (52). The lag time indicating the susceptibility of the LDL to oxidize was measured using a spectrophotometer at […] (42). Values were performed in triplicate.

[3] = Adverse events in the diabetic hypertensive crossover study (cough, angioedema, potassium/creatinine, hypotension)
From the text: as §2, with “subjects.” for “subjects. All subjects were evaluated at the time of enrollment. The subjects received nutritional counseling and were advised to record their weight and calorie counts weekly. A nutritionist was available for counseling throughout the study. Blood samples were drawn before and at the end of therapy at a similar time of day while subjects were fasting.”

PAI-1 = experiment: Serum soluble PAI-1 ELISA in subjects with metabolic syndrome; conditions: after four weeks of therapy, quinapril 20 mg/day, alpha lipoic acid 300 mg/day, from baseline
Protocol: […] Blood was collected at these time periods, and serum levels of soluble PAI-1 and VCAM-1 were determined using an enzyme-linked immunosorbent assay (ELISA). Further, endothelial function in each of the subjects was also determined by flow mediated dilation (FMD) of the brachial artery, utilizing the high resolution ultrasound technique described herein above.

[4] = Brachial artery reactivity testing (BART), flow-mediated vasodilation, diabetic hypertensive subjects
From the text: Briefly, the subjects were positioned in the supine position with the arm in a comfortable position for imaging the brachial artery. A blood pressure cuff was then placed on the forearm, after which a baseline rest image was acquired. The brachial artery was imaged above the antecubital fossa in the longitudinal plane, and a segment with clear anterior and posterior intimal interfaces between the lumen and vessel wall was selected for continuous 2D gray-scale imaging. Blood flow velocity was estimated by time-averaging the pulsed Doppler velocity signal obtained from a mid-artery sample volume. […] After cuff deflation, the longitudinal image of the artery was recorded continuously from 30 seconds before to 2 minutes after cuff deflation. […] The diameter of the brachial artery was measured from longitudinal images in which the lumen-intima interface was visualized on both the near (anterior) and far (posterior) walls. Once the image for analysis was chosen, the boundaries for diameter measurements were identified manually with electronic calipers (Medical Imaging Application Vascular Tools, Coralville, Iowa), and the average diameter was determined from at least 3 different diameter measurements determined along a segment of the vessel. Brachial artery diameter was measured at the same time in the cardiac cycle by use of electrocardiogram (ECG) gating during image acquisition. […]

[5] = diabetic hypertensive subjects, quinapril 40 mg/day, alpha lipoic acid 600 mg/day, 8 weeks
[6] = serum, diabetic hypertensive subjects

Structure (SMILES): CCOC(=O)[C@H](CCc1ccccc1)N[C@@H](C)C(=O)N1Cc2ccccc2C[C@H]1C(=O)O [Quinapril, quinapril]
- Glycosylated Hgb (glycosylated hemoglobin; [5]): 7.6 ± 1.5%
- change in glycosylated hemoglobin (Hgb) (glycosylated hemoglobin; from pretreatment and between the two treatment arms, in words): no significant change
- serum levels of adiponectin (adiponectin; over pretreatment, in words): significantly increased
- Adiponectin (adiponectin; [6]): 122% of % of pretreatment
- Leptin (leptin; [6]): 51% of % of pretreatment
- serum levels of leptin (leptin; versus pretreatment, in words): significantly reduced
- Diastolic BP [1, 5]: 77.9 ± 10.0 mmHg
- Systolic BP ([1]; diabetic hypertensive subjects, quinapril 40 mg/day, alpha lipoic acid 600 mg/day, 8 weeks, mean ± SD): 133.4 ± 11.7 mmHg
- change in systolic and diastolic blood pressure after the follow-up period ([1]; versus pretreatment, in words): significant reduction
- ratio of urinary albumin to creatinine (urinary albumin): reduced significantly
- urinary albumin (urinary albumin): reduced significantly
- serum HOMA-IR ([2]; end of treatment, pretreatment 3.01±0.33 U/ml): 1.83 ± 0.25
- reduction in HOMA-IR from pretreatment baseline ([2]; in vivo): 40%
- increase of lag time of LDL oxidation from pretreatment (LDL; human, in vivo): 23%
- lag time of LDL oxidation, Post-treatment (LDL; post-treatment): 71.0 ± 13.9 s
- hypotension (systolic BP less than 100 mm Hg) ([3]; during the study): No subject
- rise in serum potassium or creatinine of greater than 20 percent ([3]; number of subjects affected): 1 out of 40
- incidence of cough ([3]; quinapril 40 mg/day, alpha lipoic acid 600 mg/day): 14%
- angioedema ([3]; throughout the study): No angioedema
- reduction of serum PAI-1 levels (PAI-1): 22%
- increase in flow mediated dilation of the brachial artery as compared to baseline ([4]; at 24 weeks as printed): 59%
- flow mediated dilation of the brachial artery ([4]; post-treatment, pretreatment 3.86±0.55 percent): 6.02±0.80%
